The results in this text go back to US4107304A, “Oxo-imidazolidine substituted cephalosporins and antibacterial compositions and methods of combatting bacteria employing them” (Bayer Aktiengesellschaft, priority 1974, dated 1978).

For assay [1], the system named is Escherichia coli. Kind of assay: Antibiotic activity of electropherogram spot. The format is cell-based. The note with it: against Escherichia coli.
Assay [2] relates to Pseudomonas aeruginosa. Kind of assay: Antibiotic activity of electropherogram spot. The format is cell-based. The note with it: against Pseudomonas aeruginosa.
The test system of assay [3] is B. subtilis. Kind of assay: Antibiotic activity of electropherogram spot. Conditions: against B. subtilis. The format is cell-based.
A short description of assay [4]: Antibiotic activity of electropherogram spot (organism not stated). The format is cell-based.
The test system of assay [5] is Haemophilis influenzae. Kind of assay: In vitro turbidity test, 24 h in Muller-Hinton broth. The format is cell-based. Conditions: 100 μg/ml.
In assay [6] the test system is Bordetella bronchiseptica. The assay is described as above. The format is cell-based. The note with it: 100 μg/ml.
For assay [7], the system named is Proteus, indole negative and indole positive sp. The assay is described as above. The class given is cell-based. The note with it: 100 μg/ml.
Assay [8] has as its system Shigella sp. The assay is described as above. The format is cell-based. Conditions: 100 μg/ml.
Assay [9] has as its system Enterococcus sp. The assay is described as above. The class given is cell-based. The note with it: 100 μg/ml.
Assay [10] has as its system Serratia marcescens. The description is as above. The class given is cell-based. The note with it: 100 μg/ml.
Assay [11] concerns Klebsiella pneumoniae. The description is as above. The format is cell-based. Conditions: 100 μg/ml, 1 × 10^5 to 2 × 10^5 bacteria per milliliter, freedom from turbidity = active.
The test system of assay [12] is Salmonella sp. The description is as above. The note with it: 100 μg/ml. The class given is cell-based.
Assay [13] deals with Brucella sp. The class given is cell-based. Conditions: 100 μg/ml, 24 hours.
In assay [14] the test system is Enterobacter aerogenes sp. Kind of assay: In vitro turbidity test, 24 h in Muller-Hinton broth. The format is cell-based. Conditions: 100 μg/ml.
Assay [15] concerns Providencia. The description is as above. The class given is cell-based. Conditions: 100 μg/ml.
In assay [16] the test system is Streptococcus pyogenes W. Described as above. The class given is cell-based. The note with it: 100 μg/ml.
Assay [17] relates to pasteurella pseudotuberculosis. The class given is cell-based. The note with it: 100 μg/ml, 24 hours.
Assay [18] deals with Diplococcus pneumoniae sp. Kind of assay: In vitro turbidity test, 24 h in Muller-Hinton broth. The format is cell-based. The note with it: 100 μg/ml.
The subject of assay [19] is Neisseria catarrhalis sp. The description is as above. The class given is cell-based. The note with it: 100 μg/ml.
Assay [20] deals with Lactobacillus sp. The description is as above. The format is cell-based. Conditions: 100 μg/ml.
For assay [21], the system named is Corynebacterium diphtheria gravis. Described as above. The note with it: 100 μg/ml. The class given is cell-based.
The test system of assay [22] is Corynebacterium pyogenes M. The assay is described as above. The format is cell-based. Conditions: 100 μg/ml.
Assay [23] has as its system Staphylococcus aureus 133. The assay is described as above. Conditions: 100 μg/ml. The class given is cell-based.
For assay [24], the system named is Escherichia coli BE. The assay is described as above. The class given is cell-based. The note with it: 100 μg/ml.
Assay [25] relates to Escherichia coli C 165. Kind of assay: Animal experiments with white mice, intraperitoneal infection, survival after 24 hours. Conditions: C165, sc, subcutaneous, 1 administration 30 minutes after infection, dose at which 50% of infected animals survive, read-out: ED 50 after 24 hours. The format is in vivo, white mice of strain CF1. On the procedure:
(§1) The white mice of strain CF1 were infected intraperitoneally with the species of bacteria indicated. |Animal Experiments With White Mice |Determination of the ED 50 after 24 hours | Dose in mg of the cephalosporin from | Example 6 per kg of body weight |Germ (administered subcutaneously) |Therapy: 1 administration 30 minutes after infection. | The ED 50 is the dose at which 50% of the infected |animals still survive after 24 hours.

Assay [26] relates to Staphylococcus aureus 133. The assay is described as above. Conditions: Staphylococcus aureus, 133, sc, subcutaneous, 1 administration 30 minutes after infection, dose at which 50% of infected animals survive, read-out: ED 50 after 24 hours. The format is in vivo, white mice of strain CF1. On the procedure: as §1

SMILES strings stand for the structures.

Regarding `CC(=O)OCC1=C(C(=O)O)N2C(=O)[C@@H](NC(=O)[C@H](NC(=O)N3CCNC3=O)c3ccccc3)[C@H]2SC1` [Example 1, sodium 7-{D-α-[(2-oxo-imidazolidin-1-yl)carbonylamino]-phenylacetamido}-3-acetoxymethyl-ceph-3-em-4-carboxylate], the “antibiotic activity of the electropherogram spot” value (from here on “antibiotic activity”) in assay [1], in assay [2] and in assay [3] was “only one spot with antibiotic activity” each time.

For the compound `CC1=C(C(=O)O)N2C(=O)[C@@H](NC(=O)[C@H](NC(=O)N3CCNC3=O)c3ccccc3)[C@H]2SC1` [Example 2, 7-{D-α-[(2-Oxo-imidazolidin-1-yl)-carbonylamino]-phenylacetamido}-3-methyl-ceph-3-em-4-carboxylic acid], the “antibiotic activity” value in assay [4] is given as “only one spot with antibiotic activity”.

On to `CC(=O)OCC1=C(C(=O)O)N2C(=O)[C@@H](NC(=O)[C@H](NC(=O)N3CCN(C)C3=O)c3ccccc3)[C@H]2SC1` [Example 3, sodium 7-{D-α-[(3-methyl-2-oxo-imidazolidin-1-yl)-carbonylamino]-phenylacetamido}-3-acetoxymethyl-ceph-3-em-4-carboxylate], for which the degree of turbidity entry in assay [5], in assay [6], in [7], in assay [8], in [9] and in [10] was “free from turbidity” in each case. Further, the degree of turbidity result in assay [11], in assay [12], in assay [13], in assay [14], in [15] and in assay [16] was “free from turbidity” each time. Moreover, the degree of turbidity entry in assay [17], in assay [18], in assay [19], in assay [20], in [21] and in assay [22] was “free from turbidity” each time. Further, the degree of turbidity result in assay [23] and in assay [24] was “free from turbidity” each time.

In the case of `CC(=O)OCC1=C(C(=O)O)N2C(=O)[C@@H](NC(=O)[C@H](NC(=O)N3CCN(S(C)(=O)=O)C3=O)c3ccccc3)[C@H]2SC1` [Example 6, Sodium 7-{D-α-[(2-oxo-3-mesyl-imidazolidin-1-yl)-carbonylamino]-phenylacetamido}-3-acetoxymethyl-ceph-3-em-4-carboxylate], the degree of turbidity entry in assay [5], in assay [6], in assay [7], in [8], in assay [9] and in assay [10] was “free from turbidity” throughout. Besides, the degree of turbidity result in assay [11], in [12], in [13], in assay [14], in [15] and in assay [16] was “free from turbidity” in each case. Further, the degree of turbidity result in [17], in [18], in assay [19], in [20], in assay [21] and in [22] was “free from turbidity” throughout. The degree of turbidity result in [23] and in assay [24] was “free from turbidity” throughout. Moreover, the ED50 came to 200 mg/kg in assay [25] and 10 mg/kg in assay [26]. Moreover, the “antibiotic activity” value in assay [4] is “one spot with antibiotic activity”.

`CC(=O)OCC1=C(C(=O)O)N2C(=O)[C@@H](NC(=O)[C@H](NC(=O)N3CCN(S(=O)(=O)c4ccccc4)C3=O)c3ccccc3)[C@H]2SC1` [Example 7, Sodium 7-{D-α-[(2-oxo-3-phenylsulphonyl-imidazolidin-1-yl)-carbonylamino]-phenylacetamido}-3-acetoxymethyl-ceph-3-em-4-carboxylate]: the degree of turbidity result in [5], in assay [6], in assay [7], in assay [8], in assay [9] and in [10] was “free from turbidity” each time. For the same compound, the degree of turbidity result in [11], in [12], in [13], in [14], in assay [15] and in [16] was “free from turbidity” in each case. Moreover, the degree of turbidity entry in [17], in assay [18], in assay [19], in assay [20], in assay [21] and in [22] was “free from turbidity” throughout. Also, the degree of turbidity result in [23] and in assay [24] was “free from turbidity” each time.
